PubChem BioAssay (NCI)
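Cells were grown in 96-well plates and exposed to each compound for 48 hours at five concentrations; endpoints were interpolated linearly between bracketing concentrations, or set to the highest concentration if not reached. Abbreviation: GI50, concentration required for 50% inhibition of growth. TGI is the concentration that stops growth completely.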

What was measured:
Test in all cases: NCI tumour cell line growth inhibition, 48 h
ACHN renal = tested on: ACHN renal
CCRF-CEM leukemia = tested on: CCRF-CEM leukemia
DU-145 prostate = tested on: DU-145 prostate
SK-MEL-2 melanoma = tested on: SK-MEL-2 melanoma
SK-MEL-5 melanoma = tested on: SK-MEL-5 melanoma
T-47D breast = tested on: T-47D breast
UACC-257 melanoma = tested on: UACC-257 melanoma
UACC-62 melanoma = tested on: UACC-62 melanoma
DMS 273 small cell lung = tested on: DMS 273 small cell lung
KM20L2 colon = tested on: KM20L2 colon

## CCOC(=O)CCC(NC(=O)c1ccc(Oc2nc3cc(N)cc(N)c3nc2-c2ccccc2)cc1)C(=O)OCC (centres undefined)
ACHN renal
  GI50: 28.5 µM
  TGI: > 100 µM
CCRF-CEM leukemia
  GI50: 12.4 µM
  TGI: > 100 µM
DU-145 prostate
  GI50: 62.2 µM
  TGI: > 100 µM
SK-MEL-2 melanoma
  GI50: 40.7 µM
  TGI: > 100 µM
SK-MEL-5 melanoma
  GI50: 18 µM
  TGI: 53.8 µM
T-47D breast
  GI50: 24.6 µM
  TGI: 59.7 µM
UACC-257 melanoma
  GI50: 26.7 µM
  TGI: 55.1 µM
UACC-62 melanoma
  GI50: 16.1 µM
  TGI: 31 µM

## Oc1ccc(Br)cc1C=Nc1ccc(Oc2ccc(N=Cc3cc(Br)ccc3O)cc2)cc1
ACHN renal
  TGI: > 19.6 µM
CCRF-CEM leukemia
  TGI: > 19.6 µM
DMS 273 small cell lung
  TGI: > 19.6 µM
KM20L2 colon
  TGI: > 19.6 µM
SK-MEL-2 melanoma
  TGI: > 19.6 µM
SK-MEL-5 melanoma
  TGI: > 19.6 µM
UACC-257 melanoma
  TGI: > 19.6 µM
UACC-62 melanoma
  TGI: > 19.6 µM

## N#C/C(=C\c1ccccn1)c1nc2ccccc2o1
ACHN renal
  GI50: 19.2 µM
  TGI: 46.6 µM
CCRF-CEM leukemia
  GI50: 1.4 µM
  TGI: 69.6 µM
DU-145 prostate
  GI50: 34.4 µM
  TGI: > 100 µM
SK-MEL-2 melanoma
  GI50: 29.1 µM
  TGI: > 100 µM
SK-MEL-5 melanoma
  GI50: 18 µM
  TGI: 43 µM
T-47D breast
  GI50: 14.5 µM
  TGI: 34.3 µM
UACC-257 melanoma
  GI50: 35.8 µM
  TGI: > 100 µM
UACC-62 melanoma
  GI50: 21.3 µM
  TGI: 46.2 µM

## CC[P+](C)(C)CC
ACHN renal
  TGI: > 100 µM
CCRF-CEM leukemia
  TGI: > 100 µM
DMS 273 small cell lung
  TGI: > 100 µM
KM20L2 colon
  TGI: > 100 µM
SK-MEL-2 melanoma
  TGI: > 100 µM
SK-MEL-5 melanoma
  TGI: > 100 µM
UACC-257 melanoma
  TGI: > 100 µM
UACC-62 melanoma
  TGI: > 100 µM

## O=NN(CC(=O)NNc1ccccc1)CC(=O)NNc1ccccc1
ACHN renal
  TGI: > 100 µM
CCRF-CEM leukemia
  GI50: 5 µM
  TGI: > 100 µM
DU-145 prostate
  GI50: > 100 µM
  TGI: > 100 µM
SK-MEL-2 melanoma
  GI50: > 100 µM
  TGI: > 100 µM
SK-MEL-5 melanoma
  GI50: 8.67 µM
  TGI: > 100 µM
T-47D breast
  GI50: 6.1 µM
  TGI: > 100 µM
UACC-257 melanoma
  GI50: 22.4 µM
  TGI: > 100 µM
UACC-62 melanoma
  GI50: 0.479 µM
  TGI: 7.9 µM

## O=[N+]([O-])c1cc2c(ccc3ccccc32)o1
ACHN renal
  GI50: 0.147 µM
  TGI: 0.48 µM
CCRF-CEM leukemia
  GI50: 0.47 µM
  TGI: > 35.6 µM
DU-145 prostate
  GI50: 0.341 µM
  TGI: 4.81 µM
SK-MEL-2 melanoma
  GI50: 0.202 µM
  TGI: 0.416 µM
SK-MEL-5 melanoma
  GI50: 0.141 µM
  TGI: 0.296 µM
T-47D breast
  GI50: 1.57 µM
  TGI: 31.9 µM
UACC-257 melanoma
  GI50: 0.188 µM
  TGI: 0.417 µM
UACC-62 melanoma
  GI50: 0.426 µM
  TGI: 1.72 µM

## CCOC(=O)c1nc2sc(Cl)cn2c1/C=N/N=C(N)N
ACHN renal
  GI50: 22.3 µM
  TGI: 53.4 µM
CCRF-CEM leukemia
  GI50: 25.2 µM
  TGI: > 64.2 µM
DU-145 prostate
  GI50: 24.8 µM
  TGI: > 67.5 µM
SK-MEL-2 melanoma
  GI50: 36.5 µM
  TGI: > 87.2 µM
SK-MEL-5 melanoma
  GI50: 1.72 µM
  TGI: > 23.1 µM
T-47D breast
  GI50: 30.6 µM
  TGI: > 74 µM
UACC-257 melanoma
  GI50: 35.8 µM
  TGI: > 86 µM
UACC-62 melanoma
  GI50: 17.6 µM
  TGI: 34.5 µM

## O=C1OC(=O)c2c1cc1cc3c(cc1c2-c1ccc2c(c1)OCO2)OCO3
ACHN renal
  TGI: > 100 µM
CCRF-CEM leukemia
  TGI: > 100 µM
DU-145 prostate
  TGI: > 100 µM
SK-MEL-2 melanoma
  TGI: > 100 µM
SK-MEL-5 melanoma
  TGI: > 100 µM
T-47D breast
  TGI: > 100 µM
UACC-257 melanoma
  TGI: > 100 µM
UACC-62 melanoma
  TGI: > 100 µM

## O=C(N/N=C/c1coc2ccc(Cl)cc2c1=O)c1cc(O)c(O)c(O)c1
ACHN renal
  GI50: 22.1 µM
  TGI: 52.5 µM
CCRF-CEM leukemia
  GI50: 33.2 µM
  TGI: > 100 µM
DU-145 prostate
  GI50: 30.7 µM
  TGI: > 100 µM
SK-MEL-2 melanoma
  GI50: > 100 µM
  TGI: > 100 µM
SK-MEL-5 melanoma
  GI50: 11.6 µM
  TGI: 34.2 µM
T-47D breast
  GI50: > 100 µM
  TGI: > 100 µM
UACC-257 melanoma
  GI50: 39.9 µM
  TGI: > 100 µM
UACC-62 melanoma
  GI50: 19.8 µM
  TGI: 40.1 µM

## CC1Nc2ccccc2NC1C=C(C#N)C#N (centres undefined)
ACHN renal
  TGI: 32.7 µM
CCRF-CEM leukemia
  TGI: 7.97 µM
DMS 273 small cell lung
  TGI: 25.1 µM
KM20L2 colon
  TGI: 31 µM
SK-MEL-2 melanoma
  TGI: 37.7 µM
SK-MEL-5 melanoma
  TGI: 32.4 µM
UACC-62 melanoma
  TGI: 32.6 µM

## Cc1ccccc1-c1cc(=O)c2cc(C)c(C)c(C(=O)O)c2o1
ACHN renal
  TGI: > 100 µM
CCRF-CEM leukemia
  TGI: > 100 µM
DMS 273 small cell lung
  TGI: > 100 µM
KM20L2 colon
  TGI: > 100 µM
SK-MEL-2 melanoma
  TGI: > 100 µM
SK-MEL-5 melanoma
  TGI: > 100 µM
UACC-257 melanoma
  TGI: > 100 µM
UACC-62 melanoma
  TGI: > 100 µM

## O=C1/C(=C/c2ccc([N+](=O)[O-])s2)Oc2ccc(Br)cc21
ACHN renal
  GI50: 0.199 µM
  TGI: 0.414 µM
CCRF-CEM leukemia
  GI50: 0.31 µM
  TGI: 0.961 µM
DU-145 prostate
  GI50: 1.43 µM
  TGI: 2.9 µM
SK-MEL-2 melanoma
  GI50: 0.231 µM
  TGI: 0.509 µM
SK-MEL-5 melanoma
  GI50: 0.268 µM
  TGI: 0.805 µM
T-47D breast
  GI50: 0.25 µM
  TGI: 0.804 µM
UACC-257 melanoma
  GI50: 0.572 µM
  TGI: 3.96 µM
UACC-62 melanoma
  GI50: 0.297 µM
  TGI: 0.963 µM

## CC(=O)OC1CCC2(C)C(=CCC3C2CCC2(C)C3CC3OC4(CCC(C)CN4)C(C)C32)C1 (centres undefined)
ACHN renal
  TGI: > 100 µM
CCRF-CEM leukemia
  TGI: > 100 µM
DU-145 prostate
  TGI: > 100 µM
SK-MEL-2 melanoma
  TGI: > 100 µM
SK-MEL-5 melanoma
  TGI: > 100 µM
T-47D breast
  TGI: > 100 µM
UACC-257 melanoma
  TGI: > 100 µM
UACC-62 melanoma
  TGI: > 100 µM

## Cc1nc2ccccc2c(/C=C/c2ccc(C(F)(F)F)cc2)c1C(=O)/C=C/c1ccccc1
ACHN renal
  GI50: 1.54 µM
  TGI: 2.87 µM
CCRF-CEM leukemia
  GI50: 0.675 µM
  TGI: > 100 µM
DU-145 prostate
  GI50: 1.6 µM
  TGI: 3.1 µM
SK-MEL-2 melanoma
  GI50: 1.76 µM
  TGI: 3.64 µM
SK-MEL-5 melanoma
  GI50: 1.69 µM
  TGI: 3.05 µM
T-47D breast
  GI50: 1.07 µM
  TGI: 3.13 µM
UACC-257 melanoma
  GI50: 1.61 µM
  TGI: 3.17 µM
UACC-62 melanoma
  GI50: 1.49 µM
  TGI: 3 µM

## NNC(=S)N/N=C(\c1nc2ccc(Cl)cc2[nH]c1=O)C(O)c1cccc([N+](=O)[O-])c1 (centres undefined)
ACHN renal
  TGI: > 100 µM
CCRF-CEM leukemia
  TGI: > 100 µM
DMS 273 small cell lung
  TGI: > 58.7 µM
KM20L2 colon
  TGI: > 100 µM
SK-MEL-2 melanoma
  TGI: > 100 µM
SK-MEL-5 melanoma
  TGI: > 100 µM
UACC-257 melanoma
  TGI: > 100 µM
UACC-62 melanoma
  TGI: > 100 µM

## COC(=O)c1cc2c3cc(Cl)ccc3[nH]c2c2ncccc12
ACHN renal
  GI50: > 100 µM
  TGI: > 100 µM
CCRF-CEM leukemia
  GI50: > 100 µM
  TGI: > 100 µM
DU-145 prostate
  GI50: > 100 µM
  TGI: > 100 µM
SK-MEL-2 melanoma
  GI50: > 100 µM
  TGI: > 100 µM
SK-MEL-5 melanoma
  GI50: > 100 µM
  TGI: > 100 µM
T-47D breast
  GI50: 24.7 µM
  TGI: > 100 µM
UACC-257 melanoma
  GI50: > 100 µM
  TGI: > 100 µM
UACC-62 melanoma
  GI50: > 100 µM
  TGI: > 100 µM

## O=C1CC2=CCCC2O1 (centres undefined)
CCRF-CEM leukemia
  TGI: > 100 µM
DMS 273 small cell lung
  TGI: > 100 µM
SK-MEL-2 melanoma
  TGI: > 100 µM
SK-MEL-5 melanoma
  TGI: > 100 µM
UACC-257 melanoma
  TGI: > 100 µM
UACC-62 melanoma
  TGI: > 100 µM
